Reference: paper PMC9774391 (ACS Omega, 2022)

Columns and labels:
Conditions in all cases: for inhibition at 1000 µM: 10^–3 M; for inhibition at 100 µM: 10^–4 M
[1] = biological target: T1, MAO-A (Homo sapiens, UniProt P21397); test: In vitro MAO-A inhibition assay (fluorometric); assay type: biochemical
T1 sequence (P21397 1-527): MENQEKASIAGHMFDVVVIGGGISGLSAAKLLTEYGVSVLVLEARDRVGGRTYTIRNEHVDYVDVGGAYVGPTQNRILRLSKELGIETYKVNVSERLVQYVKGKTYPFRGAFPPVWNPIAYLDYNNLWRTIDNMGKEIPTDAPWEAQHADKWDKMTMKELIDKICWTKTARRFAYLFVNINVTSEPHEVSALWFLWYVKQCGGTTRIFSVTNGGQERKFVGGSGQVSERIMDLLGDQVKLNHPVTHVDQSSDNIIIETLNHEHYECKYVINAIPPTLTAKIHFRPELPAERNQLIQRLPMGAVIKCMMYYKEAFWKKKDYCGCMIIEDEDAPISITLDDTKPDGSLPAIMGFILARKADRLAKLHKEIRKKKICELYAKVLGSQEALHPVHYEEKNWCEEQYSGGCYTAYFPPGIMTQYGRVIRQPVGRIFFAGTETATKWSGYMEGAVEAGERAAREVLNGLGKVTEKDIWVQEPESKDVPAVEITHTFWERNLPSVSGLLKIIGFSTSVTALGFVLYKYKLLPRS

[2] = biological target: T2, MAO-B (Homo sapiens, UniProt P27338); test: In vitro MAO-B inhibition assay (fluorometric); assay type: biochemical
T2 sequence (P27338 1-520): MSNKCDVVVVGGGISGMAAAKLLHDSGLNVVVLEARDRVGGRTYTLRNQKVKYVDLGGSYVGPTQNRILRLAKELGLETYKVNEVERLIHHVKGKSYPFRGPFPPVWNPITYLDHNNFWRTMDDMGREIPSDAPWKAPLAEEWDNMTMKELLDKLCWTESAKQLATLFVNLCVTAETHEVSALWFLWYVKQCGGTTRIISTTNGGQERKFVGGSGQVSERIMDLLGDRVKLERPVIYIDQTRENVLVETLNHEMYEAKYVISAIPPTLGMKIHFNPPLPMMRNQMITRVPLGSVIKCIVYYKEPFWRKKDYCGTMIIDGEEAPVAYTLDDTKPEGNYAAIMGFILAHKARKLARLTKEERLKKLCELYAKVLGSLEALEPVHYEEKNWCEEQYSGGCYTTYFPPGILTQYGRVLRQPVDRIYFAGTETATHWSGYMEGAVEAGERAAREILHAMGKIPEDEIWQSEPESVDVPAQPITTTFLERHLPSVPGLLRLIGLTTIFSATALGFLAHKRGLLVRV

[3] = biological target: BChE (Homo sapiens, UniProt P06276); test: biochemical
Sequence of BChE (P06276 29-602): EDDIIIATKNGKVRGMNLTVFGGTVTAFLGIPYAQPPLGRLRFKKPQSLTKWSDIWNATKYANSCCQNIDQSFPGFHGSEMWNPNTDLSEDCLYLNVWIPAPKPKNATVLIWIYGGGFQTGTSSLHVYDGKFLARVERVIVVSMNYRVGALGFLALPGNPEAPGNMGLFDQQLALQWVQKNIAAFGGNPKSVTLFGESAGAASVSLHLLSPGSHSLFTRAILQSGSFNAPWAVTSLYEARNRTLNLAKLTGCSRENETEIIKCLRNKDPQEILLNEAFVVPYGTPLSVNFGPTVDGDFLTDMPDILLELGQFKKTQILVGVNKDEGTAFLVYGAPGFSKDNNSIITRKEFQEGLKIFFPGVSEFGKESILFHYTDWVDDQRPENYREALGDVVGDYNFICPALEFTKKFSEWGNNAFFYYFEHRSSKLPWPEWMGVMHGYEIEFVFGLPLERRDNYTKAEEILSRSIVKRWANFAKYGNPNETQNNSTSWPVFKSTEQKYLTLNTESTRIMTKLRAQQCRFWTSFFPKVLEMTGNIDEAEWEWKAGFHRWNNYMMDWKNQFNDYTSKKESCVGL
Procedure: (§1) According to the modified Ellman approach outlined in our team’s earlier work, the AChE and BChE inhibitory activities of the obtained compounds were evaluated.[18]−[21]

[4] = biological target: AChE (Homo sapiens, UniProt P22303); test: biochemical
Sequence of AChE (P22303 32-614): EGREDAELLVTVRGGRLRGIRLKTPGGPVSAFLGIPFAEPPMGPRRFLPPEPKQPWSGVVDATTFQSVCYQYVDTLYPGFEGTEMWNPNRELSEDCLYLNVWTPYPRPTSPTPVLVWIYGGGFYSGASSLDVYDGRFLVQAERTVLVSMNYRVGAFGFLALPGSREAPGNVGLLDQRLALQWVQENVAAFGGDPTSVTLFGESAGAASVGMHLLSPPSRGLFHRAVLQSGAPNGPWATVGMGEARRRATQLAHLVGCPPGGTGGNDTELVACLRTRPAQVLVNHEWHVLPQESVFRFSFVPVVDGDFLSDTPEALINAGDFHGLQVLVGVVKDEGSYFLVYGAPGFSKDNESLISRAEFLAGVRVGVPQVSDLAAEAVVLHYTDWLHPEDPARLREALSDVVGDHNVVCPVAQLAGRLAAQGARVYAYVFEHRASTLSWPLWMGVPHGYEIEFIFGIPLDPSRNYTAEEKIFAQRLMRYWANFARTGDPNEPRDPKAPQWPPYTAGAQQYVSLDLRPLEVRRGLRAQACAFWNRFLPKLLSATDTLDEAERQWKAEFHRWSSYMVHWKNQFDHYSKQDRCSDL
Procedure: as §1

| Structure (SMILES) | inhibition at 1000 µM [1] | inhibition at 100 µM [1] | inhibition at 1000 µM [2] | inhibition at 100 µM [2] | inhibition at 1000 µM [3] | inhibition at 100 µM [3] | inhibition at 1000 µM [4] | inhibition at 100 µM [4] |
| --- | --- | --- | --- | --- | --- | --- | --- | --- |
| COc1ccc2c(c1)C/C(=C\c1ccc(NC(=O)CN3CCN(C)CC3)cc1)C2=O [D1] | 59 ± 0.598% | 21.4 ± 0.424% | 65.12 ± 0.623% | 38.7 ± 0.512% | 94.6 ± 0.972% | 32.8 ± 0.455% | 83.2 ± 1.09% | 47.3 ± 0.887% |
| COc1ccc2c(c1)C(=O)/C(=C/c1ccc(NC(=O)CN3CCN(C)CC3)cc1)C2 [D2] | 46.6 ± 0.853% | 27.7 ± 0.909% | 75.3 ± 0.987% | 45.3 ± 0.859% | 61.3 ± 0.18% | 23.6 ± 0.226% | 50.3 ± 0.731% | 42.9 ± 0.601% |
| COc1cc2c(cc1OC)C(=O)/C(=C/c1ccc(NC(=O)CN3CCN(C)CC3)cc1)C2 [D3] | 57.5 ± 0.875% | 26.5 ± 0.365% | 67.2 ± 0.751% | 36.2 ± 0.452% | 98.1 ± 1.57% | 40.4 ± 0.548% | 99.3 ± 2.34% | 44.1 ± 0.906% |
| CCN1CCN(CC(=O)Nc2ccc(/C=C3\Cc4cc(OC)ccc4C3=O)cc2)CC1 [D4] | 67.6 ± 1.06% | 20.9 ± 0.455% | 77.1 ± 1.06% | 36.3 ± 0.496% | 92.9 ± 2.41% | 21.21 ± 0.11% | 74.5 ± 1.02% | 38.2 ± 0.479% |
| CCN1CCN(CC(=O)Nc2ccc(/C=C3\Cc4ccc(OC)cc4C3=O)cc2)CC1 [D5] | 66.6 ± 1.49% | 24.7 ± 0.514% | 75.6 ± 1.08% | 44.4 ± 0.627% | 55.6 ± 549% | 26.3 ± 0.211% | 38.6 ± 0.518% | 31.7 ± 0.499% |
| CCN1CCN(CC(=O)Nc2ccc(/C=C3\Cc4cc(OC)c(OC)cc4C3=O)cc2)CC1 [D6] | 93.27 ± 0.309% | 33.9 ± 1.13% | 95.5 ± 1.25% | 48.6 ± 1.13% | 96.51 ± 0.317% | 32.8 ± 0.908% | 97.5 ± 2.23% | 31.3 ± 0.697% |
| C=CCN1CCN(CC(=O)Nc2ccc(/C=C3\Cc4cc(OC)ccc4C3=O)cc2)CC1 [D7] | 61.89 ± 0.618% | 41.4 ± 0.808% | 66.33 ± 0.557% | 47.9 ± 0.952% | 56.8 ± 0.971% | 21.2 ± 0.378% | 61.3 ± 1.01% | 34.8 ± 0.472% |
| C=CCN1CCN(CC(=O)Nc2ccc(/C=C3\Cc4ccc(OC)cc4C3=O)cc2)CC1 [D8] | 57.2 ± 1.34% | 26.6 ± 0.455% | 78.6 ± 1.15% | 46.2 ± 0.547% | 51 ± 0.667% | 28.4 ± 0.409% | 51 ± 0.995% | 42 ± 0.661% |
| C=CCN1CCN(CC(=O)Nc2ccc(/C=C3\Cc4cc(OC)c(OC)cc4C3=O)cc2)CC1 [D9] | 32.6 ± 0.389% | 24.5 ± 0.459% | 58.63 ± 0.523% | 34.8 ± 0.384% | 82.8 ± 1.03% | 28.2 ± 0.679% | 81.3 ± 1.13% | 45.2 ± 0.996% |
| C#CCN1CCN(CC(=O)Nc2ccc(/C=C3\Cc4cc(OC)ccc4C3=O)cc2)CC1 [D10] | 48.9 ± 0.966% | 22.4 ± 0.662% | 68.96 ± 0.578% | 42.6 ± 0.652% | 41.3 ± 0.755% | 26.6 ± 1.35% | 71.3 ± 1.01% | 29.4 ± 0.587% |
| C#CCN1CCN(CC(=O)Nc2ccc(/C=C3\Cc4ccc(OC)cc4C3=O)cc2)CC1 [D11] | 77 ± 1.59% | 25.5 ± 0.52% | 79.6 ± 1.13% | 35.6 ± 0.488% | 91.7 ± 1.21% | 33.9 ± 0.569% | 66.6 ± 0.985% | 49.9 ± 0.809% |
